From US12466818B2, “Thienyl-aniline compounds for treatment of dermal disorders” (NFlection Therapeutics, Inc., priority 2018, dated 2025)

How the values were obtained:
[1] = biological target: MEK1 (Homo sapiens (Human), UniProt Q02750); test: MEK Inhibition Assay-2 (Z'-LYTE biochemical assay); settings: Z'-LYTE assay of Example 37; read-out: IC50 against MEK1
Method: MEK1 inhibitory activity of compounds were tested using the following procedure (protocol available at thermofisher.com/content/dam/LifeTech/migration/files/drug-discovery/pdfs.par.60256.file.dat/20130430%20ssbk %20customer %20protocol %20 and %20assa y %20conditions.pdf). The Z′-LYTE biochemical assay (ThermoFisher) employs a fluorescence-based, coupled-enzyme format and is based on the differential sensitivity of phosphorylated and non-phosphorylated peptides to proteolytic cleavage.
Test compounds in 100% DMSO were screened in 1% DMSO (final) in the well. For 10 point titrations, 3-fold serial dilutions are conducted from the starting concentration of 30 μM.
After the 1 hour incubation, 5 μL of a 1:1024 dilution of Development Reagent A (available from Invitrogen, catalog no. PV3295) was added.
ATP solutions were diluted to a 4× working concentration in Kinase Buffer (50 mM HEPES pH 7.5, 0.01% BRIJ-35, 10 mM MgCl2, 1 mM EGTA). ATP Km apparent was previously determined using a Z′-LYTE assay. The Development Reagent was diluted in Development Buffer (available from Invitrogen, catalog no. P3127).
Assay Protocol: 2.5 μL of 4× test compound or 100 nL of 100× Test Compound plus 2.4 μL Kinase Buffer, 5 μL of the 2× Peptide/Kinase Mixture, 2.5 μL of 4×ATP Solution were added to the plates and placed on a shake plate for 30-seconds. The kinase reaction was allowed to proceed for 60-minute at room temperature, before 5 μL of Development Reagent Solution was added, and the mixture agitated for 30-seconds on a shake plate. The mixture was incubated for 60-minute at room temperature. Fluorescence was measured using a plate reader and the data were analyzed.
This control yielded 100% cleaved peptide in the Development Reaction. The 100% Phosphorylation Control, which consisted of a synthetically phosphorylated peptide of the same sequence as the peptide substrate, was designed to allow for the calculation of percent phosphorylation. This control yielded a very low percentage of cleaved peptide in the Development Reaction. The 0% Phosphorylation and 100% Phosphorylation Controls allow for the calculation of the percent phosphorylation achieved in a specific reaction well.
The minimum emission ratio in a screen was established by the 0% Inhibition Control, which contained active kinase. This control was designed to produce a 10-50% phosphorylated peptide in the Kinase Reaction. Cascade assays may produce up to 70% phosphorylated peptide.
A known inhibitor control standard curve, 10 point titration, was run for each individual kinase on the same plate as the kinase to ensure the kinase was inhibited within an expected IC50 range previously determined.
The following controls are prepared for each concentration of Test Compound assayed. […] The expected value for a non-interfering compound should be 100%. Any value outside of 90% to 110% was flagged. […] The expected value for a non-fluorescence compound should be 0%. Any value>20% was flagged.
The data in Table A was calculated. XLfit from IDBS was used. The dose response curve was curve fit to model number 205 (sigmoidal dose-response model).
Table 3 lists the MEK1 inhibition assay results of selected compounds according to the above procedure.

[2] = tested on: pERK in human cutaneous neurofibroma explants; test: Human cutaneous neurofibroma explant pERK suppression (Western blot); type: cell-based
Method: Explant Protocol: Human cutaneous neurofibroma explant samples were collected in DMEM/F-12 (Thermo Fisher, Cat #11320033) supplemented with 1×B27 supplement (Thermo Fisher, Cat #17504044), 2.5 μg/ml of Amphotericin B (Thermo Fisher, Cat #15290018), and 50 units/ml of Penicillin-50 μg/ml of Streptomycin (Thermo Fisher, Cat #15070063) and incubated in the same medium for subsequent treatment. The specimen was cut into small cubes containing both the epidermis and dermis. The tissues were partially submerged in the medium in 384-well plate with the epidermis exposed to the air.
The tissues were fully submerged in the medium in 48-well plate and 5 μl of compounds dissolved in DMSO were added to 200 μl of the medium in each well. After 4 h incubation at 37° C. and 5% CO2, the tissues were harvested and half of the specimen was flash frozen in liquid nitrogen for Western Blot analysis. The other half of the specimen was fixed for 24 hours in 10% formalin and then transferred to 70% ethanol for […].
Skin samples were thawed on ice and weighed. 10 volume (10 μl for each mg of tissue) of lysis buffer (RIPA buffer+0.5 mM EDTA+1×Halt protease and phosphatase inhibitor cocktail) was then added to each sample. […]
Western Blot analysis: The lysate was thawed on ice and protein concentration was determined by the BCA protein assay kit using bovine serum albumin (BSA) as standards. […]

Chain of MEK1 (Q02750 whole entry): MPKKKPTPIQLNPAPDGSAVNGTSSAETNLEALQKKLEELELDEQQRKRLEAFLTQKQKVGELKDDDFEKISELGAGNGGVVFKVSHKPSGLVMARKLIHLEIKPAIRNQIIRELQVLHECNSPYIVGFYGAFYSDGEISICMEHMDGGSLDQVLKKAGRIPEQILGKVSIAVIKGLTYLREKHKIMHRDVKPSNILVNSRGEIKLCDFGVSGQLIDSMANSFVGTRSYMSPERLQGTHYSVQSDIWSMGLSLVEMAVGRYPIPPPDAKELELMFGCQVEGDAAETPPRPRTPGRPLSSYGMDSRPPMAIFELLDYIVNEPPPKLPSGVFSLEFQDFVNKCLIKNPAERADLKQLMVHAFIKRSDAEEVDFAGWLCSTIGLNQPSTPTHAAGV

O=C1CCCc2c1sc(Nc1ccc(I)cc1F)c2C(=O)NOCCO [Compound 1.029, 2-((2-Fluoro-4-iodophenyl)amino)-N-(2-hydroxyethoxy)-7-oxo-4,5,6,7-tetrahydrobenzo[b]thiophene-3-carboxamide]
IC50 [1]: ≤ 150 nM
suppression of pERK in human cutaneous neurofibroma (cNF) explants (FIG. 5) ([2]; concentration of 500 nM): suppression of pERK
suppression of pERK in human cutaneous neurofibroma (cNF) explants (FIG. 4) ([2]; treatment for 4 hours at 5 nM, 50 nM, and 500 nM): suppression of pERK
